Measured values as given in patent publication US7563781B2, “Triazolopyrimidine derivatives” (Janssen Pharmaceutica NV, priority 2006, dated 2009).

Tests used:
[1] = molecular target: T1, Focal Adhesion Kinase (full-length Flag-tagged human FAK) (Homo sapiens, UniProt Q05397); test: in vitro FAK ELISA kinase assay; format: biochemical; conditions: compound 10 uM; ATP 2 uM; read-out: FAK % Inhib ave: 10 uM
T1 construct: a purified recombinant full-length Flag-tagged human FAK protein; Flag; made in house; host or cells: baculovirus infected insect cells
In short: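 Plate-coated GST fusion of the 73-residue region around Tyr397 phosphorylated by full-length Flag-tagged human FAK from baculovirus-infected insect cells, with 2 μM ATP in Mg/Mn HEPES pH 7.5, 1 h at 30 °C. Phosphotyrosine detected by HRP-anti-pTyr ELISA with TMB read-out. Compounds screened at 10 μM or titrated from 50 μM in half-log steps for IC50, BSA-substrate background subtracted.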

[2] = molecular target: T2, CAK complex (human Cdk7, human Cyclin H, MAT-1) (Homo sapiens, UniProt P50613); test: in vitro time-resolved-fluorescence assay for the CAK kinase activity; format: biochemical; conditions: compound 20 uM; read-out: CAK % inhib; 20 uM
T2 construct: made in house; host or cells: SF-900 insect cells co-infected with Flag-Cdk7 and Bab-Cyclin H baculoviruses
In short: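 Kinase activity of the human CAK complex (Flag-tagged Cdk7, Cyclin H, MAT-1), purified from co-infected SF-900 insect cells by Flag-M2 immunoaffinity, was measured by time-resolved fluorescence. In black glutathione-coated 96-well plates, 500 ng GST-CTD substrate with 22 uM ATP was mixed with compound in 30% DMSO/25 mM Hepes and 250 ng CAK. Plates were incubated 20 minutes at 30° C, then stopped with EDTA, bound overnight and washed. A Europium-labeled antibody detected serine-phosphorylated CTD.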

T1 sequence (Q05397 whole entry): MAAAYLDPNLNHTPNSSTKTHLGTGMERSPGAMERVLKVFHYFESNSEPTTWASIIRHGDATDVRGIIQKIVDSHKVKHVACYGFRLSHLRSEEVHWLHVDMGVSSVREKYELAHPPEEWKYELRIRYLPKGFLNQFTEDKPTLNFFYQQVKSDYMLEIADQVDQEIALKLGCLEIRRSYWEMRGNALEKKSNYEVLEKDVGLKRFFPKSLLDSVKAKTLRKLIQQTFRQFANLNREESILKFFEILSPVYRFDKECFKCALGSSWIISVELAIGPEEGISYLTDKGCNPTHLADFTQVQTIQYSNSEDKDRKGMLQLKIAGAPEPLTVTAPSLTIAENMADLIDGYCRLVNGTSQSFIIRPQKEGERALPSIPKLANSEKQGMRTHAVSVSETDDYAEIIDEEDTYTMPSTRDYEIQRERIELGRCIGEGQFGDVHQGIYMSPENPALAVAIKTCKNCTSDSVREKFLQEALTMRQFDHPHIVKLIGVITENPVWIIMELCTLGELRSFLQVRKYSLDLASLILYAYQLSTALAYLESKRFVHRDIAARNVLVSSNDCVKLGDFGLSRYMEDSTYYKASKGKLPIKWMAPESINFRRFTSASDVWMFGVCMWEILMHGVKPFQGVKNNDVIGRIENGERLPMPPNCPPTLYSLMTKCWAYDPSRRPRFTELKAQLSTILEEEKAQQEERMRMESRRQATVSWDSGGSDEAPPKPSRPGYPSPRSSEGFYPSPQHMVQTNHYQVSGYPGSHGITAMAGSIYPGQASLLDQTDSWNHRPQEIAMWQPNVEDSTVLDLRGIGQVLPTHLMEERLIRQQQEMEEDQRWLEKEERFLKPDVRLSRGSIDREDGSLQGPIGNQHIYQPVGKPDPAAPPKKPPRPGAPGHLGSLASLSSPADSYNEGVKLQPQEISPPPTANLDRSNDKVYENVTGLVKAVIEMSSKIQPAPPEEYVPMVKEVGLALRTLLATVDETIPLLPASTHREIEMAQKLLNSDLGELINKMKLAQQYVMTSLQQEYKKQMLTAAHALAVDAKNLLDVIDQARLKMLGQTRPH
T2 sequence (P50613 with tags, fused parts or gaps): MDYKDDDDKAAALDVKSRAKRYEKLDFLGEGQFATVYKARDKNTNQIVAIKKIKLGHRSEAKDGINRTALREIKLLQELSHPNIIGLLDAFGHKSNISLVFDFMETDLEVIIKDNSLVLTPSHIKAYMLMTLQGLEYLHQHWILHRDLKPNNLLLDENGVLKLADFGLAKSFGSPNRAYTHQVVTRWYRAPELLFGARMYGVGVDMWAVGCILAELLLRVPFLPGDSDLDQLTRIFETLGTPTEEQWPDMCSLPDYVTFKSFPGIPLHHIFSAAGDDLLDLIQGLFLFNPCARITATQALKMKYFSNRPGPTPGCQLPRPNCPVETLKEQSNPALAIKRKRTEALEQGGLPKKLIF
T2 sequence (as listed by the source partner): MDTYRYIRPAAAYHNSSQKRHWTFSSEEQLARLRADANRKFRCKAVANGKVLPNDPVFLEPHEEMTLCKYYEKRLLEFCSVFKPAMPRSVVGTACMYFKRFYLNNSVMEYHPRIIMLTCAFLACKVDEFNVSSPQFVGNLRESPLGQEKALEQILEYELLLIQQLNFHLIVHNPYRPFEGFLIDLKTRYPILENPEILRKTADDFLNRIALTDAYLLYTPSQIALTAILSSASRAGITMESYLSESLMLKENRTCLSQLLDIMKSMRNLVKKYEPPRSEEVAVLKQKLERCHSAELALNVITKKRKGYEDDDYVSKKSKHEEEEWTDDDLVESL

SMILES	inhibition at 10 µM [1]	inhibition at 20 µM [2]
CCN(CC)CCNC(=O)c1ccc(Nc2ncc3nnn(-c4ccc(N5CCN(Cc6ccccc6)CC5)cc4)c3n2)cc1 [Compound 56, 4-{3-[4-(4-Benzyl-piperazin-1-yl)-phenyl]-3H-[1,2,3]triazolo[4,5-d]pyrimidin-5-ylamino}-N-(2-diethylamino-ethyl)-benzamide]	75.5%	87.3%
CCCCNS(=O)(=O)c1cccc(Nc2ncc3nnn(Cc4ccccc4)c3n2)c1 [Compound 57]	22%	34.1%
CCN(CC)CCNC(=O)c1ccc(Nc2ncc3nnn(Cc4ccccc4)c3n2)cc1 [Compound 58, 4-(3-Benzyl-3H-[1,2,3]triazolo[4,5-d]pyrimidin-5-ylamino)-N-(2-diethylamino-ethyl)-benzamide]	59%	58%
c1ccc(CN2CCN(c3ccc(Nc4ncc5nnn(Cc6ccccc6)c5n4)cc3)CC2)cc1 [Compound 59, [4-(4-Benzyl-piperazin-1-yl)-phenyl]-(3-benzyl-3H-[1,2,3]triazolo[4,5-d]pyrimidin-5-yl)-amine]	25%	47%
c1cc(Nc2ncc3nnn(C4CCc5ccccc54)c3n2)cc(-c2nnn[nH]2)c1 (centres unmarked) [Compound 60, (3-Indan-1-yl-3H-[1,2,3]triazolo[4,5-d]pyrimidin-5-yl)-[3-(1H-tetrazol-5-yl)-phenyl]-amine]	26.8%	-0.99%
CCN(CC)CCNC(=O)c1ccc(Nc2ncc3nnn(C4CCc5ccccc54)c3n2)cc1 (centres unmarked) [Compound 61, N-(2-Diethylamino-ethyl)-4-(3-indan-1-yl-3H-[1,2,3]triazolo[4,5-d]pyrimidin-5-ylamino)-benzamide]	85.5%	79.4%

Further lines, results first:

inhibition at 10 µM [1]	inhibition at 20 µM [2]	SMILES
66.7%	45.3%	CCN(CC)CCNC(=O)c1ccc(Nc2ncc3nnn(-c4cccc(-c5nnn[nH]5)c4)c3n2)cc1 [Compound 62, N-(2-Diethylamino-ethyl)-4-{3-[3-(1H-tetrazol-5-yl)-phenyl]-3H-[1,2,3]triazolo[4,5-d]pyrimidin-5-ylamino}-benzamide]
59.8%	39.3%	CCOC(=O)N1CCC(n2nnc3cnc(Nc4cccc(-c5nnn[nH]5)c4)nc32)CC1 [Compound 63, 4-{5-[3-(1H-Tetrazol-5-yl)-phenylamino]-[1,2,3]triazolo[4,5-d]pyrimidin-3-yl}-piperidine-1-carboxylic acid ethyl ester]
29.1%	33.9%	CCOC(=O)N1CCC(n2nnc3cnc(Nc4ccc(C(=O)NCCN(CC)CC)cc4)nc32)CC1 [Compound 64, 4-{5-[4-(2-Diethylamino-ethylcarbamoyl)-phenylamino]-[1,2,3]triazolo[4,5-d]pyrimidin-3-yl}-piperidine-1-carboxylic acid ethyl ester]
54.7%	42.7%	CCN(CC)CCNC(=O)c1ccc(-n2nnc3cnc(Nc4cccc(-c5nnn[nH]5)c4)nc32)cc1 [Compound 65, N-(2-Diethylamino-ethyl)-4-{5-[3-(1H-tetrazol-5-yl)-phenylamino]-[1,2,3]triazolo[4,5-d]pyrimidin-3-yl}-benzamide]
87.2%	68.1%	CCN(CC)CCNC(=O)c1ccc(Nc2ncc3nnn(-c4cc[nH]n4)c3n2)cc1 [Compound 66]
15.4%	44.2%	c1cc(Nc2ncc3nnn(C4CCCC4)c3n2)cc(-c2nnn[nH]2)c1 [Compound 67, (3-Cyclopentyl-3H-[1,2,3]triazolo[4,5-d]pyrimidin-5-yl)-[3-(1H-tetrazol-5-yl)-phenyl]-amine]
56.5%	63.8%	CCN(CC)CCNC(=O)c1ccc(Nc2ncc3nnn(C4CCCC4)c3n2)cc1 [Compound 68, 4-(3-Cyclopentyl-3H-[1,2,3]triazolo[4,5-d]pyrimidin-5-ylamino)-N-(2-diethylamino-ethyl)-benzamide]
